Reference: ChEMBL document CHEMBL1201861, “Genomics of Drug Sensitity in Cancer screening data, Wellcome Trust Sanger Institute”

Legend:
Assay in all cases: cells
COR-L88 = format: functional, cell-based; conditions: Homo sapiens
Description: SANGER: Inhibition of human COR-L88 cell growth in a cell viability assay.

CTB-1 = format: functional, cell-based; conditions: Homo sapiens
Description: SANGER: Inhibition of human CTB-1 cell growth in a cell viability assay.

CTV-1 = format: functional, cell-based; conditions: Homo sapiens
Description: SANGER: Inhibition of human CTV-1 cell growth in a cell viability assay.

CaR-1 = format: functional, cell-based, Homo sapiens; conditions: Homo sapiens, CaR-1
Description: SANGER: Inhibition of human CaR-1 cell growth in a cell viability assay.

ChaGo-K-1 = format: functional, cell-based; conditions: Homo sapiens
Description: SANGER: Inhibition of human ChaGo-K-1 cell growth in a cell viability assay.

EGI-1 = format: functional, cell-based, Homo sapiens; conditions: Homo sapiens, EGI-1
Description: SANGER: Inhibition of human EGI-1 cell growth in a cell viability assay.

G-401 = format: functional, cell-based, Homo sapiens; conditions: Homo sapiens, G-401
Description: SANGER: Inhibition of human G-401 cell growth in a cell viability assay.

HCC1806 = format: functional, cell-based, Homo sapiens; conditions: Homo sapiens, HCC1806
Description: SANGER: Inhibition of human HCC1806 cell growth in a cell viability assay.

HCC 2998 = format: functional, cell-based, Homo sapiens; conditions: Homo sapiens, HCC 2998
Description: SANGER: Inhibition of human HCC2998 cell growth in a cell viability assay.

HT1197 = format: functional, cell-based, Homo sapiens, HT-1197; conditions: Homo sapiens, HT1197
Description: SANGER: Inhibition of human HT-1197 cell growth in a cell viability assay.

HT-1376 = format: functional, cell-based, Homo sapiens; conditions: Homo sapiens, HT-1376
Description: SANGER: Inhibition of human HT-1376 cell growth in a cell viability assay.

HuCCT-1 = format: functional, cell-based, Homo sapiens, HuCCT1; conditions: Homo sapiens, HuCCT-1
Description: SANGER: Inhibition of human HuCCT1 cell growth in a cell viability assay.

Huh-7 = format: functional, cell-based, Homo sapiens; conditions: Homo sapiens, Huh-7
Description: SANGER: Inhibition of human HuH-7 cell growth in a cell viability assay.

KE-37 = format: functional, cell-based; conditions: Homo sapiens
Description: SANGER: Inhibition of human KE-37 cell growth in a cell viability assay.

KGN = format: functional, cell-based, Homo sapiens; conditions: Homo sapiens, KGN
Description: SANGER: Inhibition of human KGN cell growth in a cell viability assay.

KM12 = format: functional, cell-based, Homo sapiens; conditions: Homo sapiens, KM12
Description: SANGER: Inhibition of human KM12 cell growth in a cell viability assay.

KNS-81-FD = format: functional, cell-based, Homo sapiens; conditions: Homo sapiens, KNS-81-FD
Description: SANGER: Inhibition of human KNS-81-FD cell growth in a cell viability assay.

KYSE-140 = format: functional, cell-based, Homo sapiens; conditions: Homo sapiens, KYSE-140
Description: SANGER: Inhibition of human KYSE-140 cell growth in a cell viability assay.

LCLC-103H cell line = format: functional, cell-based, Homo sapiens; conditions: Homo sapiens, LCLC-103H
Description: SANGER: Inhibition of human LCLC-103H cell growth in a cell viability assay.

LU-99A = format: functional, cell-based, Homo sapiens; conditions: Homo sapiens, LU-99A
Description: SANGER: Inhibition of human LU-99A cell growth in a cell viability assay.

MC116 = format: functional, cell-based; conditions: Homo sapiens
Description: SANGER: Inhibition of human MC116 cell growth in a cell viability assay.

MDA-MB-415 = format: functional, cell-based; conditions: Homo sapiens
NB12 = format: functional, cell-based, Homo sapiens; conditions: Homo sapiens, NB12
Description: SANGER: Inhibition of human NB12 cell growth in a cell viability assay.

NB17 = format: functional, cell-based; conditions: Homo sapiens
Description: SANGER: Inhibition of human NB17 cell growth in a cell viability assay.

NB69 = format: functional, cell-based, Homo sapiens; conditions: Homo sapiens, NB69
Description: SANGER: Inhibition of human NB69 cell growth in a cell viability assay.

NCI-H1563 = format: functional, cell-based, Homo sapiens; conditions: Homo sapiens, NCI-H1563
Description: SANGER: Inhibition of human NCI-H1563 cell growth in a cell viability assay.

NCI-H1693 = format: functional, cell-based, Homo sapiens; conditions: Homo sapiens, NCI-H1693
Description: SANGER: Inhibition of human NCI-H1693 cell growth in a cell viability assay.

NCI-H1755 = format: functional, cell-based, Homo sapiens; conditions: Homo sapiens, NCI-H1755
Description: SANGER: Inhibition of human NCI-H1755 cell growth in a cell viability assay.

NCI-H1993 = format: functional, cell-based, Homo sapiens; conditions: Homo sapiens, NCI-H1993
Description: SANGER: Inhibition of human NCI-H1993 cell growth in a cell viability assay.

NCI-H23 = format: functional, cell-based, Homo sapiens; conditions: Homo sapiens, NCI-H23
Description: SANGER: Inhibition of human NCI-H23 cell growth in a cell viability assay.

NCI-H2342 = format: functional, cell-based; conditions: Homo sapiens
Description: SANGER: Inhibition of human NCI-H2342 cell growth in a cell viability assay.

NCI-H650 = format: functional, cell-based, Homo sapiens; conditions: Homo sapiens, NCI-H650
Description: SANGER: Inhibition of human NCI-H650 cell growth in a cell viability assay.

OAW-28 = format: functional, cell-based, Homo sapiens; conditions: Homo sapiens, OAW-28
Description: SANGER: Inhibition of human OAW-28 cell growth in a cell viability assay.

OAW-42 = format: functional, cell-based, Homo sapiens; conditions: Homo sapiens, OAW-42
Description: SANGER: Inhibition of human OAW-42 cell growth in a cell viability assay.

PSN1 = format: functional, cell-based, Homo sapiens; conditions: Homo sapiens, PSN1
Description: SANGER: Inhibition of human PSN1 cell growth in a cell viability assay.

SBC-5 = format: functional, cell-based, Homo sapiens; conditions: Homo sapiens, SBC-5
Description: SANGER: Inhibition of human SBC-5 cell growth in a cell viability assay.

SCC-15 = format: functional, cell-based, Homo sapiens; conditions: Homo sapiens, SCC-15
Description: SANGER: Inhibition of human SCC-15 cell growth in a cell viability assay.

SHP77 = format: functional, cell-based, Homo sapiens, SHP-77; conditions: Homo sapiens, SHP77
Description: SANGER: Inhibition of human SHP-77 cell growth in a cell viability assay.

SJSA-1 = format: functional, cell-based, Homo sapiens; conditions: Homo sapiens, SJSA-1
Description: SANGER: Inhibition of human SJSA-1 cell growth in a cell viability assay.

8505C = format: functional, cell-based, Homo sapiens; conditions: Homo sapiens, 8505C
Description: SANGER: Inhibition of human 8505C cell growth in a cell viability assay.

A101D = format: functional, cell-based, Homo sapiens; conditions: Homo sapiens, A101D
Description: SANGER: Inhibition of human A101D cell growth in a cell viability assay.

A 172 = format: functional, cell-based, Homo sapiens; conditions: Homo sapiens, A 172
Description: SANGER: Inhibition of human A172 cell growth in a cell viability assay.

A498 = format: functional, cell-based, Homo sapiens; conditions: Homo sapiens, A498
Description: SANGER: Inhibition of human A498 cell growth in a cell viability assay.

A673 = format: functional, cell-based, Homo sapiens; conditions: Homo sapiens, A673
Description: SANGER: Inhibition of human A673 cell growth in a cell viability assay.

ABC-1 = format: functional, cell-based, Homo sapiens; conditions: Homo sapiens, ABC-1
Description: SANGER: Inhibition of human ABC-1 cell growth in a cell viability assay.

BV-173 = format: functional, cell-based; conditions: Homo sapiens
Description: SANGER: Inhibition of human BV-173 cell growth in a cell viability assay.

C8166 = format: functional, cell-based; conditions: Homo sapiens
Description: SANGER: Inhibition of human C8166 cell growth in a cell viability assay.

CAL-33 = format: functional, cell-based, Homo sapiens; conditions: Homo sapiens, CAL-33
Description: SANGER: Inhibition of human CAL-33 cell growth in a cell viability assay.

CAL-72 = format: functional, cell-based, Homo sapiens; conditions: Homo sapiens, CAL-72
Description: SANGER: Inhibition of human CAL-72 cell growth in a cell viability assay.

WM-115 = format: functional, cell-based, Homo sapiens; conditions: Homo sapiens, WM-115
Description: SANGER: Inhibition of human WM-115 cell growth in a cell viability assay.

COLO-668 = format: functional, cell-based, Homo sapiens; conditions: Homo sapiens, COLO-668
Description: SANGER: Inhibition of human COLO-668 cell growth in a cell viability assay.

## COc1ccc(C2=N[C@@H](c3ccc(Cl)cc3)[C@@H](c3ccc(Cl)cc3)N2C(=O)N2CCNC(=O)C2)c(OC(C)C)c1 [NUTLIN-3]
COR-L88
  IC50: > 8 µM
CTB-1
  IC50: 2.02 µM
CTV-1
  IC50: 4.08 µM
CaR-1
  IC50: > 8 µM
ChaGo-K-1
  IC50: > 8 µM
EGI-1
  IC50: > 8 µM
G-401
  IC50: 3.36 µM
HCC1806
  IC50: > 8 µM
HCC 2998
  IC50: > 8 µM
HT1197
  IC50: > 8 µM
HT-1376
  IC50: > 8 µM
HuCCT-1
  IC50: > 8 µM
Huh-7
  IC50: > 8 µM
KE-37
  IC50: > 8 µM
KGN
  IC50: 3.08 µM
KM12
  IC50: > 8 µM
KNS-81-FD
  IC50: 6.76 µM
KYSE-140
  IC50: > 8 µM
LCLC-103H cell line
  IC50: > 8 µM
LU-99A
  IC50: > 8 µM
MC116
  IC50: > 8 µM
MDA-MB-415
  IC50: > 8 µM
NB12
  IC50: > 8 µM
NB17
  IC50: 4.32 µM
NB69
  IC50: 2.65 µM
NCI-H1563
  IC50: > 8 µM
NCI-H1693
  IC50: > 8 µM
NCI-H1755
  IC50: > 8 µM
NCI-H1993
  IC50: > 8 µM
NCI-H23
  IC50: > 8 µM
NCI-H2342
  IC50: > 8 µM
NCI-H650
  IC50: > 8 µM
OAW-28
  IC50: > 8 µM
OAW-42
  IC50: > 8 µM
PSN1
  IC50: > 8 µM
SBC-5
  IC50: > 8 µM
SCC-15
  IC50: > 8 µM
SHP77
  IC50: > 8 µM
SJSA-1
  IC50: 2.83 µM
8505C
  IC50: > 8 µM
A101D
  IC50: 2.35 µM
A 172
  IC50: 2.68 µM
A498
  IC50: > 8 µM
A673
  IC50: > 8 µM
ABC-1
  IC50: > 8 µM
BV-173
  IC50: 2.84 µM
C8166
  IC50: > 8 µM
CAL-33
  IC50: > 8 µM
CAL-72
  IC50: > 8 µM
WM-115
  IC50: 6.93 µM
COLO-668
  IC50: > 8 µM

## O=C(c1cc(Cc2n[nH]c(=O)c3ccccc23)ccc1F)N1CCN(C(=O)C2CC2)CC1 [OLAPARIB]
COR-L88
  IC50: > 5 µM
CTB-1
  IC50: > 5 µM
CTV-1
  IC50: > 5 µM
CaR-1
  IC50: > 5 µM
ChaGo-K-1
  IC50: > 5 µM
EGI-1
  IC50: > 5 µM
G-401
  IC50: > 5 µM
HCC1806
  IC50: > 5 µM
HCC 2998
  IC50: > 5 µM
HT1197
  IC50: > 5 µM
HT-1376
  IC50: > 5 µM
HuCCT-1
  IC50: > 5 µM
Huh-7
  IC50: > 5 µM
KE-37
  IC50: > 5 µM
KGN
  IC50: > 5 µM
KM12
  IC50: > 5 µM
KNS-81-FD
  IC50: > 5 µM
KYSE-140
  IC50: > 5 µM
LCLC-103H cell line
  IC50: > 5 µM
LU-99A
  IC50: > 5 µM
MC116
  IC50: > 5 µM
MDA-MB-415
  IC50: > 5 µM
NB12
  IC50: > 5 µM
NB17
  IC50: > 5 µM
NB69
  IC50: > 5 µM
NCI-H1563
  IC50: > 5 µM
NCI-H1693
  IC50: > 5 µM
NCI-H1755
  IC50: > 5 µM
NCI-H1993
  IC50: > 5 µM
NCI-H23
  IC50: > 5 µM
NCI-H2342
  IC50: > 5 µM
NCI-H650
  IC50: > 5 µM
OAW-28
  IC50: > 5 µM
OAW-42
  IC50: > 5 µM
PSN1
  IC50: > 5 µM
SBC-5
  IC50: > 5 µM
SCC-15
  IC50: > 5 µM
SHP77
  IC50: > 5 µM
SJSA-1
  IC50: > 5 µM
8505C
  IC50: > 5 µM
A101D
  IC50: > 5 µM
A 172
  IC50: > 5 µM
A498
  IC50: > 5 µM
A673
  IC50: > 5 µM
ABC-1
  IC50: > 5 µM
BV-173
  IC50: > 5 µM
C8166
  IC50: > 5 µM
CAL-33
  IC50: > 5 µM
CAL-72
  IC50: > 5 µM
WM-115
  IC50: > 5 µM
COLO-668
  IC50: > 5 µM

## C=CCNC1=C2C[C@@H](C)C[C@H](OC)[C@H](O)[C@@H](C)/C=C(\C)[C@H](OC(N)=O)[C@@H](OC)/C=C\C=C(/C)C(=O)NC(=CC1=O)C2=O [TANESPIMYCIN]
COR-L88
  IC50: 0.0491 µM
CTB-1
  IC50: 0.328 µM
CTV-1
  IC50: 0.527 µM
CaR-1
  IC50: 0.0455 µM
ChaGo-K-1
  IC50: 0.317 µM
EGI-1
  IC50: > 1 µM
G-401
  IC50: 0.104 µM
HCC1806
  IC50: 0.0713 µM
HCC 2998
  IC50: 0.0735 µM
HT1197
  IC50: > 1 µM
HT-1376
  IC50: 0.169 µM
HuCCT-1
  IC50: 0.323 µM
Huh-7
  IC50: > 1 µM
KE-37
  IC50: > 1 µM
KGN
  IC50: > 1 µM
KM12
  IC50: 0.0635 µM
KNS-81-FD
  IC50: 0.184 µM
KYSE-140
  IC50: > 1 µM
LCLC-103H cell line
  IC50: > 1 µM
LU-99A
  IC50: 0.0624 µM
MC116
  IC50: > 1 µM
MDA-MB-415
  IC50: 0.708 µM
NB12
  IC50: > 1 µM
NB17
  IC50: 0.88 µM
NB69
  IC50: 0.271 µM
NCI-H1563
  IC50: 0.949 µM
NCI-H1693
  IC50: > 1 µM
NCI-H1755
  IC50: 0.0634 µM
NCI-H1993
  IC50: > 1 µM
NCI-H23
  IC50: 0.0266 µM
NCI-H2342
  IC50: > 1 µM
NCI-H650
  IC50: 0.177 µM
OAW-28
  IC50: > 1 µM
OAW-42
  IC50: > 1 µM
PSN1
  IC50: 0.046 µM
SBC-5
  IC50: 0.201 µM
SCC-15
  IC50: > 1 µM
SHP77
  IC50: 0.905 µM
SJSA-1
  IC50: 0.318 µM
8505C
  IC50: 1 µM
A101D
  IC50: 0.481 µM
A 172
  IC50: 0.21 µM
A498
  IC50: 0.102 µM
A673
  IC50: > 1 µM
ABC-1
  IC50: > 1 µM
BV-173
  IC50: 0.687 µM
C8166
  IC50: > 1 µM
CAL-33
  IC50: > 1 µM
CAL-72
  IC50: > 1 µM
WM-115
  IC50: 0.0376 µM
COLO-668
  IC50: > 1 µM
